{
  "source": "patent US9388405B2",
  "about": "“Method for identifying a subpopulation of mammalian cells with distinctive ribosome translation profiles” (priority 2009, dated 2016)",
  "key": {"[1]": {"tested_on": "MCF7 CMV-fLuc subclones #44 and #48", "test": "PKC activator dose response, cap-dependent translation (fLuc)", "assay_type": "cell-based, human", "protocol": "Following 6 hr exposure to the Single-Toxin TPA assay, cells were lysed and fLuc protein activity measured using a standard microplate reader assay. The raw values were averaged and expressed as the ratio of treated to untreated samples (Fold Induction).\nDashed lines represent translational response levels produced by a 100 nM TPA Single-Toxin assay. The Bryostatin 1 concentrations (top panel) encompassed the TPA concentrations used in FIG. 27A. […] The Bryostatin 2 dose response curve (bottom panel) employed higher drug concentrations (the maximal tested dose was 5× the largest TPA and Bryostatin 1 amounts). At the highest tested dose (2.5 uM), Bryostatin 2 produced fLuc activity consistent with the level observed with 100 nM TPA.\nIn addition to measuring cap-dependent and cap-independent translational effects, Class-specific translational activity and toxin-defined actions, the previously described materials and methods allow for a variety of applications designed to detect and characterize agents and processes that regulate ribosome activity. In this example, comparative dose response assays were used to detect cap-dependent and cap-independent translational regulation in MCF7 cells. The basis for this application was the observation that distinct translational responses are produced by compounds at different doses. When an assortment of compounds act on a common molecular target, they can be grouped into a genus of related drugs. By comparing individual species of a compound genus over a defined dose range, differences in translational regulation can be defined. Furthermore, these translational differences can often be linked to biological differences.\nIn this example (FIG. 27), the three PKC activators produced similar dose response trends in cap-dependent assays. […] However, macrolide lactones produced translational increases that were generally 60-70% of the TPA translational response (FIG. 27B). In fact, a 25 fold increase in Bryostatin 2 concentration (2.5 uM) was needed to produce a translational magnitude similar to the 100 nM TPA assay (FIG. 27B)."}, "[2]": {"tested_on": "MCF7 mTRdm-fLuc subclones #8, #27, and #45", "test": "PKC activator dose response, cap-independent TR translation (fLuc)", "assay_type": "cell-based, human", "protocol": "Following 6 hr culture with a TPA single-Toxin assay, cells were lysed and fLuc protein activity measured using a standard microplate reader assay. The plate reader values were averaged and expressed as the ratio of treated to untreated samples (Fold Induction).\nAs with FIG. 27B, dashed lines represent translational response levels achieved by the 100 nM TPA assay in each cell line. […] A further difference between the cap-dependent and cap-independent assays was the observation that increased Bryostatin 2 concentrations (5× the maximal TPA dose) never produced fLUC activity equivalent to the 100 nM TPA assay. Thus, the Toxin Assay procedure can detect a statistically significant difference in cap-dependent and cap-independent translation in compounds that activate PKC activity.\nIn the cap-independent assays, a similar dose response trend was observed over a 1 nM to 250 nM range with a translational peak at a 100 nM dose. However, the magnitude of the Bryostatin increases were generally 30% of 100 nM TPA response."}, "Protein Kinase C (PKC)": {"tested_on": "Protein Kinase C (PKC)", "details": "cited from earlier work"}},
  "data": [
    {"substance": "Bryostatin 2", "values": [
      {"measurement": "fold increase in concentration needed for translational magnitude similar to the 100 nM TPA assay", "setting": "[1]", "value": 25, "unit": "fold"},
      {"measurement": "dose producing fLuc activity consistent with the level observed with 100 nM TPA", "setting": "[1]; single-Toxin, highest tested dose", "value": 2.5, "unit": "µM"},
      {"measurement": "% of the 100 nM TPA response", "setting": "[2]; dose 2.5 uM", "value": "~50", "unit": "%"},
      {"measurement": "magnitude of translational response versus 100 nM TPA tests", "setting": "[2]; single-Toxin", "value": "never reached the fLuc activity produced in 100 nM TPA tests"},
      {"measurement": "inhibition constant (Ki) relative to the Ki of Bryostatin 1", "setting": "Protein Kinase C (PKC)", "value": 10, "unit": "×"}
    ]}
  ]
}
